{
  "source": "the NIST ThermoML archive (doi:10.1016/j.jct.2019.05.005)",
  "note": "± gives the expanded uncertainty stated by the source.",
  "data": [
    {"settings": "Liquid; Ebulliometric method (Recirculating still)", "units": {"Normal boiling temperature": "°C"}, "values": [
      {"compound": "CC(=O)N(C)C", "note": "[N,N-dimethylethanamide]", "Normal boiling temperature": "165.80 ± 1"},
      {"compound": "CCC(C)OC(C)=O", "note": "(centres undefined) [1-methylpropyl ethanoate]", "Normal boiling temperature": "112.18 ± 1"},
      {"compound": "C[S+](C)[O-]", "note": "[dimethyl sulfoxide]", "Normal boiling temperature": "190.02 ± 1"},
      {"compound": "CCC(C)O", "note": "(centres undefined) [butan-2-ol]", "Normal boiling temperature": "99.48 ± 1"}
    ]}
  ]
}
